From patent US11840525B2, “Use of AURKB small-molecule inhibitors for treatment of non-small cell lung cancer” (Nanjing China-Australia Institute of Translational Medicine …, priority 2016, dated 2023)
Read-outs that look alike come from different tables or passages of the source.

Tests used:
[1] = test system: A549 cells; experiment: CCK-8 growth inhibition of A549 lung cancer cells; type: cell-based; details: Homo sapiens
Experimental: (§1) Lung cancer cells A549 were separated into a 96-well plate and respectively added with 10 mM TZ47 stock solution to final concentrations of 0 μM, 0.1 μM, 0.5 μM, 1 μM, 2 μM, 4 μM and 8 μM in respective wells. Then the 96-well plate was incubated at 37° C. for 48 h and the growth of the cells was analyzed by a CCK-8 method. […] It can be seen from Table 1 that TZ47 also plays a desirable role in inhibiting the growth of other cancer cells including colorectal cancer, leukemia, liver cancer, melanoma, breast cancer and ovarian cancer.

[2] = test system: SW480; experiment: Growth inhibition of tumor cells, SW480; type: cell-based; details: Homo sapiens, read-out: IC50 against tumor cells, SW480
Experimental: as §1

[3] = test system: H3S10 phosphorylation in A549 cells; experiment: Western blot of histone modifications in A549 cells; type: cell-based
[4] = test system: MCF-7; experiment: Growth inhibition of tumor cells, MCF-7; type: cell-based; details: Homo sapiens, MCF7; read-out: IC50 against tumor cells, MCF-7
Experimental: as §1

[5] = test system: A549 xenograft; experiment: A549 heterotopic xenograft in nude mice; type: in vivo; details: 150 mg/kg
Experimental: The lung-cancer mouse model was constructed to test the effect of TZ47 on tumor proliferation in vivo. First, A549 cells were inoculated into the mice at the left axilla. When the tumor was proliferated to 100 mm^3, the mice were treated with TZ47 (150 mg/kg), and the weight, tumor volume and diet were observed and recorded. In the sixth week, the mice were anesthetized, and the tumors were photographed and recorded. […] The mice were quickly sacrificed through the dislocation of cervical vertebra, and the solid tumor was collected and weighed.
Next, part of the solid tumor was extracted for the immunohistochemistry assay. […] The solid tumor protein was lysed and analyzed by western blot assay.

[6] = test system: H3S10 ph near the E2F2 promoter in A549 cells; experiment: ChIP assay of H3S10 ph near the E2F2 promoter; type: cell-based; details: TZ47-treated A549 cells
Experimental: A549 cells were treated by different concentrations of TZ47, and then total RNAs and total proteins of cells were extracted to detect the expression of gene E2F2. […] To further verify the above results, A549 cells were treated with TZ47 and extracted for chromatin, and the chromatin and an H3S10 ph-specific antibody were then used in the ChIP assay. […] It can be seen from the above tests that TZ47 can inhibit the AURKB activity and further inhibit the level of AURKB histone substrate H3S10 ph on the promoter of gene E2F2, affecting the expression of gene E2F2.
The specific steps were described as follows. • a. Detailed steps and conditions for Western blot assay and real-time quantitative PCR test have been described in the above Examples. • b. Chromatin co-immunoprecipitation (ChIP) • 1) In vivo cross-linking of DNA-protein complex
2×10^6-7 cells were collected by low-speed centrifugation, resuspended in 20 mL of RPMI 1640 medium, added with 550 μL of a 37% formalin solution in a fuming cupboard to a final concentration of 1% and incubated for 10 min. The system was mixed 2-3 times during the incubation. • 2) Termination of cross-linking
The cross-linking system was added with 1.35 mL of 2 M glycine (final concentration: 0.1 M), mixed uniformly and incubated for 10 min. […]
The OD260 value of the supernatant was determined and used to calculate the DNA concentration. […]

[7] = test system: HepG-2; experiment: Growth inhibition of tumor cells, HepG-2; type: cell-based; details: Homo sapiens, HepG2; read-out: IC50 against tumor cells, HepG-2
Experimental: as §1

[8] = test system: A549 cells; experiment: Autophagy of A549 cells (LC3 western blot); type: cell-based; details: increasing concentration of TZ47

IC50 ([1]; CCK-8, 48 h, read-out: IC50 of TZ47 against A549): 730 nM
IC50 ([1]; read-out: IC50 against tumor cells, A549): 730 ± 240 nM
IC50 [2]: 9430 ± 340 nM
IC50 [4]: 1870 ± 150 nM
behavior, diet and weight of the mice versus control group [5]: no significant difference
IC50 [7]: 2180 ± 120 nM
Structure (SMILES): c1ccc2c(Cc3[nH]c4ccccc4c3Cc3c[nH]c4ccccc34)c[nH]c2c1 [TZ47]
degradation of AURKB protein in A549 cells ([3]; 48 h): did not mediate the degradation
labeling of other histone residues close to H3S10 ([3]; A549 cells): failed to affect
phosphorylation level of H3S10 in A549 cells ([3]; different concentrations, 48 h): significantly reduced
HE staining of solid tumor ([5]; also verified with Ki-67): large quantity of necrotic tissues
tumor volume versus solvent control group ([5]; sixth week): significantly smaller
solid tumor weight (tumor growth in vivo) ([5]; tumor collected and weighed): significant activity in inhibiting the tumor growth
expression level of AURKB protein in solid tumor ([5]; western blot of tumor): did not affect
H3S10 ph modification level in solid tumor ([5]; western blot of tumor, P<0.05): significantly reduced
enrichment of histone H3S10 ph near the E2F2 promoter [6]: significantly reduced
degree of cell autophagy [8]: increased significantly
